From patent publication US6307108A, “Metal-ligand complex catalyzed processes” (Union Carbide Chemicals & Plastics Technology Corporation, priority 2000, dated 2001)

Test: Heptane/acetonitrile partition (Kpartition) and extraction factor after hydroformylation
Type: physicochemical
Conditions: for Kpartition = amount of product in the heptane phase/amount of product in the acetonitrile phase: Examples 4, 6, 8, Ligand B reaction solution in heptane (2 milliliters) extracted with acetonitrile (2 milliliters), gas chromatography; for Kpartition = amount of material in the heptane phase/amount of material in the acetonitrile phase: room temperature; for extraction factor = Kpartition rhodium/Kpartition product: heptane/acetonitrile
Procedure: To the vessel was then added an equal volume of acetonitrile. The mixture was vigorously shaken for several minutes then allowed to settle and phase separate. The layers were then analyzed for rhodium content and hydroformylation product. The partition coefficient of the catalyst and the product, as defined bay Kpartition=amount of material in the heptane phase/amount of material in the acetonitrile phase, was then determined for each component.
A portion of the reaction solution (2 milliliters) was extracted with acetonitrile (2 milliliters). The phases were separated and the content of ethyl 11-formylundecanoate product was determined in both phases by gas chromatography.
A portion of the reaction solution (2 milliliters) was extracted with acetonitrile (2 milliliters). The phases were separated, and the content of methyl 11-formylundecanoate product in each phase was determined by gas chromatography.
A portion of the reaction solution (2 milliliters) was extracted with acetonitrile (2 milliliters). The phases were separated and the content of butyl 11-formylundecanoate product was determined in both phases by gas chromatography.
A portion of the reaction solution (5 mL) was diluted with heptane (10 mL), shaken at room temperature under nitrogen with acetonitrle (13 mL) and allowed to settle. Two phases with approximately equal volumes were analyzed for rhodium and the hydroformylation product. The partition coefficient of the catalyst and the product defined as Kpartition=amount of material in the heptane phase/amount of material in the acetonitrile phase was determined for each component.

Row | Kpartition = amount of product in the heptane phase/amount of product in the acetonitrile phase | Kpartition = amount of material in the heptane phase/amount of material in the acetonitrile phase (Example 2, Example 1 reaction solution (Ligand A, ethyl 10-undecenoate), equal volume acetonitrile) | extraction factor = Kpartition rhodium/Kpartition product (Example 2) | Kpartition = amount of material in the heptane phase/amount of material in the acetonitrile phase (Example 9, Ligand A, methyl 10-undecenoate, 5 mL reaction solution diluted with heptane (10 mL), acetonitrile (13 mL)) | extraction factor = Kpartition rhodium/Kpartition product (Example 9) | Molecule
1 | 0.25 |  |  |  |  | CCOC(=O)CCCCCCCCCCC=O [ethyl 11-formylundecanoate]
2 |  | 170 | 680 | 166 | 976 | rhodium
3 | 0.19 |  |  |  |  | COC(=O)CCCCCCCCCCC=O [methyl 11-formylundecanoate]
4 | 0.56 |  |  |  |  | CCCCOC(=O)CCCCCCCCCCC=O [butyl 11-formylundecanoate]
